The test system of this test is Elongator complex protein 1 (ELP1, also referred to as IKBKAP). Description: IKBKAP-HTRF assay (IKBKAP protein in lysates of FD patient-derived fibroblasts). The test is classed as cell-based, human. Conditions: 48 hours incubation, 7-point concentration curve. The procedure: The assay is used for the quantitative determination of Elongator complex protein 1 (ELP1, also referred to as IKBKAP) concentration in cell lysates using the HTRF® (Homogeneous Time-Resolved Fluorescence) technology. IKBKAP is detected in a sandwich HTRF assay by use of an anti-IKAP antibody labeled with a donor and an anti-IKAP antibody labeled with an acceptor.
Cells were thawed and incubated in DMEM-10% FBS for 72 hours. Cells were trypsinized, counted, and re-suspended to a concentration of 50,000 cells/mL in DMEM-10% FBS. A 199 μL aliquot of the cell suspensions were plated at 10,000 cells per well in a 96 well microtiter plate and incubated for 3 to 5 hours. […] Test compounds were serially diluted 3.16-fold in 100% DMSO to generate a 7-point concentration curve. A 1 μL aliquot of 200× compound solution was transferred to cell-containing wells, and cells were incubated for 48 hours in a cell culture incubator (37° C., 5% CO2, 100% relative humidity). Triplicate samples were set up for each compound concentration. After 48 hours, the supernatant was removed from the cells and 50 μL of the 1×LB4 lysis buffer, containing protease inhibitors, was added to the cells and incubated with shaking at room temperature for 1 hour. A 36 μL aliquot of this lysate was subsequently transferred to the 384-well plate containing 4 μL of the antibody solution (1:50 dilution of anti IKAP d2 and anti-IKAP K(9+8) in detection buffer). The 384-well plate was then centrifuged for 1 minute to bring the solutions to the bottom of the plate and incubated overnight at 4° C. Fluorescence for each well of the plate at 665 nm and 620 nm was measured was on the EnVision plate reader (Perkin Elmer). The ΔF for each sample is calculated by:
[formula] wherein Signal is the normalized fluorescence for each sample well and Blank is the average normalized average fluorescence for the Blank control wells.
The maximum fold increase (MFI) in IKBKAP protein abundance for compounds of Formula (I) or a form thereof relative to the vehicle control are provided in Table 1. MFI was calculated by dividing the ΔF value for each sample well by the sample ΔF for the vehicle control wells.
The EC2x for IKBKAP protein expression obtained from the 7-point concentration curve generated for each test compound according to the protocol in Biological Example 1 are also provided in Table 1. The term “EC2x for IKBKAP protein expression” is defined as the concentration of test compound that is effective in producing two times the amount of IKBKAP protein in a FD patient cell compared to the amount produced from the DMSO vehicle control.

The source of these data is patent publication US12384797B2, “Thioeno[3,2-b] pyridin-7-amine compounds for treating familial dysautonomia” (PTC THERAPEUTICS, INC., priority 2019, dated 2025).

As for “2-[(2R)-2-amino-3-fluoropropyl]-5-chloro-3-cyclopropyl-N-[(thiophen-2-yl)methyl]thieno[3,2-b]pyridin-7-amine [Compound 77]”, the “EC2x for IKBKAP protein expression (concentration producing two times the amount of IKBKAP protein vs DMSO vehicle control)” value was “*** (between >0.02 μM and ≤0.5 μM is indicated by three stars (***))”; the “MFI (maximum fold increase in IKBKAP protein abundance relative to the vehicle control)” value was “**** (between >3.9 and ≤4.9 is indicated by four stars (****))”.

Consider “2-[(2R)-2-amino-3-fluoropropyl]-5-chloro-3-methyl-N-[(1,3-thiazol-2-yl)methyl]thieno[3,2-b]pyridin-7-amine [Compound 69]”, for which the “EC2x for IKBKAP protein expression (concentration producing two times the amount of IKBKAP protein vs DMSO vehicle control)” value is “***** (≤0.005 μM is indicated by five stars (*****))” and the “MFI (maximum fold increase in IKBKAP protein abundance relative to the vehicle control)” value is “***** (>4.9 is indicated by five stars (*****))”.

In the case of “2-[(2S)-2-amino-4-methylpentyl]-5-chloro-3-cyclopropyl-N-[(1,3-thiazol-2-yl)methyl]thieno[3,2-b]pyridin-7-amine [Compound 80]”, the “EC2x for IKBKAP protein expression (concentration producing two times the amount of IKBKAP protein vs DMSO vehicle control)” value was “*** (between >0.02 μM and ≤0.5 μM is indicated by three stars (***))”; the “MFI (maximum fold increase in IKBKAP protein abundance relative to the vehicle control)” value is “*** (between >2.9 and ≤3.9 is indicated by three stars (***))”.

For “2-[(2S)-2-aminobutyl]-5-chloro-3-cyclopropyl-N-[(1,3-thiazol-2-yl)methyl]thieno[3,2-b]pyridin-7-amine [Compound 86]”, the “EC2x for IKBKAP protein expression (concentration producing two times the amount of IKBKAP protein vs DMSO vehicle control)” value was “*** (between >0.02 μM and ≤0.5 μM is indicated by three stars (***))”; the “MFI (maximum fold increase in IKBKAP protein abundance relative to the vehicle control)” value was “**** (between >3.9 and ≤4.9 is indicated by four stars (****))”.

As to “2-[(2S)-2-aminobutyl]-5-chloro-3-cyclopropyl-N-[(thiophen-2-yl)methyl]thieno[3,2-b]pyridin-7-amine [Compound 75]”, the “EC2x for IKBKAP protein expression (concentration producing two times the amount of IKBKAP protein vs DMSO vehicle control)” value is “*** (between >0.02 μM and ≤0.5 μM is indicated by three stars (***))”; the “MFI (maximum fold increase in IKBKAP protein abundance relative to the vehicle control)” value is “***** (>4.9 is indicated by five stars (*****))”.

With `Clc1cc(NCc2ccco2)c2sccc2n1` [Compound 1, 5-chloro-N-[(furan-2-yl)methyl]thieno[3,2-b]pyridin-7-amine], the “EC2x for IKBKAP protein expression (concentration producing two times the amount of IKBKAP protein vs DMSO vehicle control)” value is reported as “* (An EC2x>1 μM is indicated by one star (*))”; the “MFI (maximum fold increase in IKBKAP protein abundance relative to the vehicle control)” value was “*** (between >2.9 and ≤3.9 is indicated by three stars (***))”.

Consider `Cc1csc2c(NCc3ccco3)cc(Cl)nc12` [Compound 2, 5-chloro-N-[(furan-2-yl)methyl]-3-methylthieno[3,2-b]pyridin-7-amine], for which the “EC2x for IKBKAP protein expression (concentration producing two times the amount of IKBKAP protein vs DMSO vehicle control)” value is “*** (between >0.02 μM and ≤0.5 μM is indicated by three stars (***))”; the “MFI (maximum fold increase in IKBKAP protein abundance relative to the vehicle control)” value was “***** (>4.9 is indicated by five stars (*****))”.

As to `Cc1c(C(C)O)sc2c(NCc3ccco3)cc(Cl)nc12` (stereo not drawn) [Compound 3, 1-(5-chloro-7-{[(furan-2-yl)methyl]amino}-3-methylthieno[3,2-b]pyridin-2-yl)ethan-1-ol], the “EC2x for IKBKAP protein expression (concentration producing two times the amount of IKBKAP protein vs DMSO vehicle control)” value was “*** (between >0.02 μM and ≤0.5 μM is indicated by three stars (***))”; the “MFI (maximum fold increase in IKBKAP protein abundance relative to the vehicle control)” value was “*** (between >2.9 and ≤3.9 is indicated by three stars (***))”.

As for `CC(O)c1cc2nc(Cl)cc(NCc3ccco3)c2s1` (stereo not drawn) [Compound 4, 1-(5-chloro-7-{[(furan-2-yl)methyl]amino}thieno[3,2-b]pyridin-2-yl)ethan-1-ol], the “EC2x for IKBKAP protein expression (concentration producing two times the amount of IKBKAP protein vs DMSO vehicle control)” value is given as “* (An EC2x>1 μM is indicated by one star (*))”; the “MFI (maximum fold increase in IKBKAP protein abundance relative to the vehicle control)” value was “** (between >1.9 and ≤2.9 is indicated by two stars (**))”.

Regarding `OCc1cc2nc(Cl)cc(NCc3ccco3)c2s1` [Compound 5, (5-chloro-7-{[(furan-2-yl)methyl]amino}thieno[3,2-b]pyridin-2-yl)methanol], the “EC2x for IKBKAP protein expression (concentration producing two times the amount of IKBKAP protein vs DMSO vehicle control)” value is “* (An EC2x>1 μM is indicated by one star (*))” and the “MFI (maximum fold increase in IKBKAP protein abundance relative to the vehicle control)” value was “* (An MFI≤1.9 is indicated by one star (*))”.

As to `Clc1cc(NCc2ccco2)c2scc(Cl)c2n1` [Compound 6, 3,5-dichloro-N-[(furan-2-yl)methyl]thieno[3,2-b]pyridin-7-amine], the “EC2x for IKBKAP protein expression (concentration producing two times the amount of IKBKAP protein vs DMSO vehicle control)” value was “*** (between >0.02 μM and ≤0.5 μM is indicated by three stars (***))”; the “MFI (maximum fold increase in IKBKAP protein abundance relative to the vehicle control)” value is listed as “***** (>4.9 is indicated by five stars (*****))”.

For the compound `Clc1cc(NCc2ccco2)c2scc(Br)c2n1` [Compound 7, 3-bromo-5-chloro-N-[(furan-2-yl)methyl]thieno[3,2-b]pyridin-7-amine], the “EC2x for IKBKAP protein expression (concentration producing two times the amount of IKBKAP protein vs DMSO vehicle control)” value was “*** (between >0.02 μM and ≤0.5 μM is indicated by three stars (***))”; the “MFI (maximum fold increase in IKBKAP protein abundance relative to the vehicle control)” value is given as “***** (>4.9 is indicated by five stars (*****))”.

Turning to `Clc1cc(NCc2nccs2)c2scc(Cl)c2n1` [Compound 8, 3,5-dichloro-N-[(1,3-thiazol-2-yl)methyl]thieno[3,2-b]pyridin-7-amine], the “EC2x for IKBKAP protein expression (concentration producing two times the amount of IKBKAP protein vs DMSO vehicle control)” value is “*** (between >0.02 μM and ≤0.5 μM is indicated by three stars (***))”; the “MFI (maximum fold increase in IKBKAP protein abundance relative to the vehicle control)” value is “***** (>4.9 is indicated by five stars (*****))”.

In the case of `Clc1cc(NCc2nccs2)c2scc(Br)c2n1` [Compound 9, 3-bromo-5-chloro-N-[(1,3-thiazol-2-yl)methyl]thieno[3,2-b]pyridin-7-amine], the “EC2x for IKBKAP protein expression (concentration producing two times the amount of IKBKAP protein vs DMSO vehicle control)” value is “*** (between >0.02 μM and ≤0.5 μM is indicated by three stars (***))”; the “MFI (maximum fold increase in IKBKAP protein abundance relative to the vehicle control)” value is on record as “***** (>4.9 is indicated by five stars (*****))”.

For `Cc1cc(NCc2nccs2)c2scc(Cl)c2n1` [Compound 10, 3-chloro-5-methyl-N-[(1,3-thiazol-2-yl)methyl]thieno[3,2-b]pyridin-7-amine], the “EC2x for IKBKAP protein expression (concentration producing two times the amount of IKBKAP protein vs DMSO vehicle control)” value was “* (An EC2x>1 μM is indicated by one star (*))” and the “MFI (maximum fold increase in IKBKAP protein abundance relative to the vehicle control)” value is “* (An MFI≤1.9 is indicated by one star (*))”.

Turning to `N#Cc1cc(NCc2cccs2)c2scc(Br)c2n1` [Compound 11, 3-bromo-7-{[(thiophen-2-yl)methyl]amino}thieno[3,2-b]pyridine-5-carbonitrile], the “EC2x for IKBKAP protein expression (concentration producing two times the amount of IKBKAP protein vs DMSO vehicle control)” value is “*** (between >0.02 μM and ≤0.5 μM is indicated by three stars (***))”; the “MFI (maximum fold increase in IKBKAP protein abundance relative to the vehicle control)” value was “** (between >1.9 and ≤2.9 is indicated by two stars (**))”.

Take `N#Cc1cc(NCc2cccs2)c2scc(C#N)c2n1` [Compound 12, 7-{[(thiophen-2-yl)methyl]amino}thieno[3,2-b]pyridine-3,5-dicarbonitrile]: the “EC2x for IKBKAP protein expression (concentration producing two times the amount of IKBKAP protein vs DMSO vehicle control)” value is “*** (between >0.02 μM and ≤0.5 μM is indicated by three stars (***))”; the “MFI (maximum fold increase in IKBKAP protein abundance relative to the vehicle control)” value was “** (between >1.9 and ≤2.9 is indicated by two stars (**))”.

For `N#Cc1csc2c(NCc3cccs3)cc(Cl)nc12` [Compound 13, 5-chloro-7-{[(thiophen-2-yl)methyl]amino}thieno[3,2-b]pyridine-3-carbonitrile], the “MFI (maximum fold increase in IKBKAP protein abundance relative to the vehicle control)” value is listed as “***** (>4.9 is indicated by five stars (*****))”.

As for `N#Cc1csc2c(NCc3ccco3)cc(Cl)nc12` [Compound 14, 5-chloro-7-{[(furan-2-yl)methyl]amino}thieno[3,2-b]pyridine-3-carbonitrile], the “EC2x for IKBKAP protein expression (concentration producing two times the amount of IKBKAP protein vs DMSO vehicle control)” value was “*** (between >0.02 μM and ≤0.5 μM is indicated by three stars (***))”; the “MFI (maximum fold increase in IKBKAP protein abundance relative to the vehicle control)” value was “***** (>4.9 is indicated by five stars (*****))”.

As to `N#Cc1cc(NCc2ccco2)c2scc(C#N)c2n1` [Compound 15, 7-{[(furan-2-yl)methyl]amino}thieno[3,2-b]pyridine-3,5-dicarbonitrile], the “EC2x for IKBKAP protein expression (concentration producing two times the amount of IKBKAP protein vs DMSO vehicle control)” value was “* (An EC2x>1 μM is indicated by one star (*))” and the “MFI (maximum fold increase in IKBKAP protein abundance relative to the vehicle control)” value is “* (An MFI≤1.9 is indicated by one star (*))”.
